The record followed here is patent US20230149401A1 (priority 2020, published 2023).

Assay [1] deals with SARS-CoV-2. Briefly: microbe, parasite or virus in culture. Format: cell-based.
Assay [2] has as its target T1, TMPRSS2 (Homo sapiens, UniProt O15393). Particulars: HeLa-ACE2 cells, 120 μM.
Experimental: HeLa-ACE2 cells were transiently transfected with empty vector (V) or increasing cDNA ratios of V5-tagged WT spike protein to TMPRSS2 (spike-V5:TMPRSS2) as indicated and 24 h later incubated for an additional 24 h in serum-free media containing 120 μM Camostat (+) or control DMSO (−) (FIG. 12A). Immunoblot of the 24 h conditioned media (concentrated 10-fold) was first probed for S1 and S1′ using an antibody against S1-subunit (GTX135356), stripped and next probed for sACE2 (ab108252) and mature TMPRSS2m (14437-1-AP) (upper panel). Cell lysates were immunoblotted for spike protein (V5-mAb), ACE2 (ab108252) and β-Actin (lower panel). HeLa-ACE2 cells were transiently transfected for 48 h with empty vector (V), TMPRSS2, and V5-tagged spike protein (S) alone or in combination with TMPRSS2 (S+TMPRSS2) in a ratio of 1:0.7 (FIG. 12B). For each condition, 1 ml of 24h serum free conditioned media was immunoprecipitated with 2 μg goat polyclonal ACE2 antibody (AF933, R&D) and 60 μl TrueBlot anti-goat Ig IP beads (00-8844-25; Rockland) and analyzed by western blot first for S1 and S1′ (GTX135356) and next for sACE2 (rabbit MAB; ab108252) (upper right panels). For reference, 50% of the media before immunoprecipitation (concentrated 10-fold) (input) was similarly analyzed (upper left panels). Immunoblots of the cell lysates (spike protein: V5-mAb) are also shown (lower panels).
To confirm that S2a, and S2b are generated by TMPRSS2 activity in the ER, HeLa-ACE2 cells were incubated with 120 μM Camostat, known to inhibit TMPRSS2.
Assay [3] relates to endogenous furin-like enzymes. It is filed as cell-based, Chinese hamster. Particulars: BHK21 cells; Compound 192/219 at 0.3, 1 or 10 μM, RVKR at 50 μM; 24 h.
Assay [4] deals with endogenous furin-like enzymes. It is filed as cell-based, African green monkey. Particulars: VeroE6 cells; Compound 192/219 at 0.3, 1 or 10 μM, RVKR at 50 μM; 24 h.
The test system of assay [5] is endogenous furin-like enzymes. It is filed as cell-based, human. Particulars: A549 cells; Compound 192/219 at 0.3, 1 or 10 μM, RVKR at 50 μM; 24 h.
In a further assay the target is T2, PACE4 (PCSK6) (Homo sapiens, UniProt P29122).
T2 construct: PACE4 (PCSK6; 150-693-Tev-Flag-6His); Tev site (C); Flag (C); 6His (C); made in house; host or cells: BacMam transduced CHO cells
T2 sequence (P29122 150-693): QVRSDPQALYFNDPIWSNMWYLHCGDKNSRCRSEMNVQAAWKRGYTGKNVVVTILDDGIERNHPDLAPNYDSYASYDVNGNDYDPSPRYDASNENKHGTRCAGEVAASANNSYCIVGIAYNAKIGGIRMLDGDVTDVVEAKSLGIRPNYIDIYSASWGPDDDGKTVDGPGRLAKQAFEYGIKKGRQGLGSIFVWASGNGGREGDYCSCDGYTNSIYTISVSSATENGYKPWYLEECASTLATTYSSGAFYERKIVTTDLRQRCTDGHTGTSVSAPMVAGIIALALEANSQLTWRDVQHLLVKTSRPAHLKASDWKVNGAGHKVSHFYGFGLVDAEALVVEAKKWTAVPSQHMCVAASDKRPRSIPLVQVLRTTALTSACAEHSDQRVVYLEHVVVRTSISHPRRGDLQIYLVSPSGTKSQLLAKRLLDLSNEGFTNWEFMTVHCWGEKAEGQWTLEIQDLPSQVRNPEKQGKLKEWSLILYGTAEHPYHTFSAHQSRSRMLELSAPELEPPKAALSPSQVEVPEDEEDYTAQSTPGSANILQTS
Briefly: Biochemical PC-inhibition assay, substrate FAM-[…]-TAMRA. As to the method:
(§1) Biochemical assay: The proprotein convertases furin (108-574-Tev-Flag-6His), PC5A (PCSK5; […]-Tev-Flag-6His), PACE4 (PCSK6; 150-693-Tev-Flag-6His), and PC7 (PCSK7; 142-634-Tev-Flag-6His) enzymes were purified from BacMam transduced CHO cells. […] 0.05 μl of each concentration was transferred to the corresponding well of an assay plate, and then 5 μl of enzyme (furin, PCSK5, PCSK6, and PCSK7) in assay buffer (100 mM HEPES pH 7.5, 1 mM CaCl2) and 0.005% Triton X-100) was added using a Multidrop Combi (Thermo) to the compound plates to give a final protein concentration of 0.02, 0.5, 2.5, and 1.0 nM respectively. The plates were mixed by inversion, and following a 30 min preincubation of enzyme with compound at room temperature (˜22° C.), the substrate FAM-[…] -TAMRA (AnaSpec #808143, 5 μl of a 1, 0.25, 0.20, and 0.5 μM solution in assay buffer for furin, PCSK5, PCSK6, and PCSK7 respectively) was added using a Multidrop Combi to the entire assay plate. The plates were centrifuged at 500×g for 1 minute and incubated at room temperature for two hours. Enzyme inhibition was then quantified using an Envision instrument (PerkinElmer). Data were normalized to maximal inhibition determined by 1 μM Decanoyl-Arg-Val-Lys-Arg-Chloromethylketone (Calbiochem #344930). Golgi imaging assay: This assay uses an image-based platform to evaluate the intracellular activity of furin inhibitors. Reactions were performed in black 384-well, tissue culture-treated, clear bottom plates (Greiner). Compounds under analysis were dissolved in DMSO (1.0 mM) and serially diluted 1 to 3 with DMSO through eleven dilutions. This creates a final compound concentration range from 0.00017 to 10 μM, and 0.1 μL of each concentration was transferred to the corresponding well of the assay plate.

A further assay concerns the target T3, PC5A (PCSK5) (Homo sapiens, UniProt Q92824).
T3 construct: fused on or other part: C-terminal Tev site, Flag tag and 6His tag
The description is as above. The protocol:
as §1

Another assay deals with T4, PC7 (PCSK7) (Homo sapiens, UniProt Q16549).
T4 construct: PC7 (PCSK7; 142-634-Tev-Flag-6His); Tev site (C); Flag (C); 6His (C); made in house; host or cells: BacMam transduced CHO cells
T4 sequence (Q16549 142-634): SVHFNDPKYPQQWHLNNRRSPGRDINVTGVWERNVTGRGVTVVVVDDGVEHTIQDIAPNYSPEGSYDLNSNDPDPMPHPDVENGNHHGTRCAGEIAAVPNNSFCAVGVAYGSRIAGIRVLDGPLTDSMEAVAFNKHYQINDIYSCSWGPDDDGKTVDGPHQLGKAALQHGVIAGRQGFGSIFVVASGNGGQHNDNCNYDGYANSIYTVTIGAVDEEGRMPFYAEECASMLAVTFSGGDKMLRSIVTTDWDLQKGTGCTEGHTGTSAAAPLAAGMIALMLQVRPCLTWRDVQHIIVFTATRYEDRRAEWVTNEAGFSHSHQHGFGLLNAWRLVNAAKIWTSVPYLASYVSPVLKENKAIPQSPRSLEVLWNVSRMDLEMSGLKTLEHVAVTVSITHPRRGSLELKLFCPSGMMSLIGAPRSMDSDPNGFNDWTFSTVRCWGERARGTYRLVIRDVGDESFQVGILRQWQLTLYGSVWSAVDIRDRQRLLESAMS
Described as above. As to the method: as §1

In assay [6] the test system is endogenous furin-like enzymes. Format: cell-based. Particulars: HeLa-ACE2 cells.
For assay [7], the system named is HeLa cells co-expressing the S-protein with ACE2. As to the kind of experiment: Immunocytochemistry of HeLa cells co-expressing S-protein and ACE2 (syncytia, localization). Format: cell-based. Particulars: 1 μM. As to the method: Immunocytochemical analyses of HeLa cells co-expressing the S-protein or μS1/S2 with ACE2 in the absence or presence of 1 μM Compound 192 was also investigated under cell-permeabilization (P; V5 and ACE2 antibodies) and non-permeabilization (NP; S2 and ACE2 antibodies) conditions (FIGS. 14, 15). In the absence of Compound 192, the S-protein and ACE2 co-localized abundantly at the cell surface (FIG. 14-a). HeLa cells expressing both S-protein and ACE2 formed many syncytia, associated with reduced cell surface expression of the S-protein, and an even greater reduction of ACE2 (FIG. 14-b).
Cell culture and transfection were performed on glass coverslips. Cells were washed twice with PBS and fixed with fresh 4% paraformaldehyde for 10 min at room temperature. Following washes, cells were either non-permeabilized or permeabilized with 0.2% Triton X-100 in PBS containing 2% BSA for 5 min, washed, and then blocking was performed with PBS containing 2% BSA for 1 h. Cells were incubated with primary antibodies overnight at 4° C. using an antibody against V5 (mouse monoclonal R960-25; 1:1000; Invitrogen), Spike (mouse monoclonal GTX632604; 1:500; GeneTex) and ACE2 (goat polyclonal AF933; 1:500; RnDsystems). Following wash, corresponding species-specific Alexa-Fluor (488 or 555)-tagged antibodies (Molecular Probes) were incubated for 1 h at room temperature. […]

For assay [8], the system named is SARS-CoV-2 Spike ACE2-dependent cell-to-cell fusion. Briefly: microbe, parasite or virus in culture. It is filed as cell-based. Particulars: Severe acute respiratory syndrome coronavirus 2; 300 nM.
Assay [9] relates to HIV particles pseudotyped with SARS-CoV-2 S. Format: cell-based.
The test system of assay [10] is SARS-CoV-2. Format: cell-based.
For assay [11], the target named is T5, furin (Homo sapiens, UniProt P09958). Briefly: biochemical.
Target sequence in this assay (P09958 108-794): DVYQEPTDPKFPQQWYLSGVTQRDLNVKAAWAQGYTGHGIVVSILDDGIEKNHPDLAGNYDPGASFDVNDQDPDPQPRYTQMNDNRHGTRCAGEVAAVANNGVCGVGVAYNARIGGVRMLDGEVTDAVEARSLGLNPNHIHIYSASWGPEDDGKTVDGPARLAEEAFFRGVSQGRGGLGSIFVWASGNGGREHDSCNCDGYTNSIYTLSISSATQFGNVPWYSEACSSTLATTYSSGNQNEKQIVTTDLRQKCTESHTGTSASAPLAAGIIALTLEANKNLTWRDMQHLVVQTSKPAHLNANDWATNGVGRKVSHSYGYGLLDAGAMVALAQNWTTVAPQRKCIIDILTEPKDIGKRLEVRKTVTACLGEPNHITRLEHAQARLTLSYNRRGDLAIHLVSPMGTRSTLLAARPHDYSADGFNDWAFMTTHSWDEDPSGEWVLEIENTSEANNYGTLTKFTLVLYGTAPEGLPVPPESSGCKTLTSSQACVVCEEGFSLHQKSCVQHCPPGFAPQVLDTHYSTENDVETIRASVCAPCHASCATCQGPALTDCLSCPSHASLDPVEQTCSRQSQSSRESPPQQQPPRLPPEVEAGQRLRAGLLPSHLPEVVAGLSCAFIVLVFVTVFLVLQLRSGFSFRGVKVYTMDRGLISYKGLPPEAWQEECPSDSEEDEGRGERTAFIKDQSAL
Experimental: Furin and TRMPSS2 fluorogenic assays: Recombinant furin was purchased from BioLegend (#719406), TRMPSS2 from Cusabio and the DABCYLGlu-EDANS labelled peptides encompassing the different cleavage sites (Supplementary Table 1) were purchased from Genscript. Reactions were performed at room temperature in black 384-well polystyrene low volume plates (CELLSTAR-Greiner Bio-One #784476) at a final volume of 15 μL. […] Cleavage of the synthetic peptides was quantitated by determining the increase of EDANS (493 nM) fluorescence following release of the DABCYL quencher, which is excited at 335 nM using a Safire 2 Tecan fluorimeter. The fluorescence was followed during 90 min, and the enzymatic activity was deduced by measurement of the increase of fluorescence during the linear phase of the reaction. Each reaction was performed in triplicate and the standard deviation was calculated using Excel-ecart type function
For assay [12], the target named is T1, TMPRSS2. It is filed as cell-based. The arrangement: expressed in transfected cells; host or cells: HeLa. Particulars: HeLa cells.
For assay [13], the target named is T5, furin. As to the kind of experiment: Biochemical PC-inhibition assay, substrate FAM-[…]-TAMRA. More on the design: furin (108-574-Tev-Flag-6His); Tev site (C); Flag (C); 6His (C); made in house; host or cells: BacMam transduced CHO cells.
Target sequence in this assay (P09958 108-574): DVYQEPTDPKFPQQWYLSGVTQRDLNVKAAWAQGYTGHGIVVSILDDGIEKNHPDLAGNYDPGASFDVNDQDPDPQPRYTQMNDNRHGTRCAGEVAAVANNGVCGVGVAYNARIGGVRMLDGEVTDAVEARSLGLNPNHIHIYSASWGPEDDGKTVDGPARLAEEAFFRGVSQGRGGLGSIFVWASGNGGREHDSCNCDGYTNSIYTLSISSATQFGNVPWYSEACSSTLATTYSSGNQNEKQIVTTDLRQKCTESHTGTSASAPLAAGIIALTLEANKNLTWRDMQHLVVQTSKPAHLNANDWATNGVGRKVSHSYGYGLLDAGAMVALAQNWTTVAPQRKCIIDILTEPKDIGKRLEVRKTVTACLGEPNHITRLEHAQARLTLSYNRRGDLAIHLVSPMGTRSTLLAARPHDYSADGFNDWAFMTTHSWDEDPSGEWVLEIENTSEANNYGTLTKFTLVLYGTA
Experimental: Biochemical assay: The proprotein convertases furin (108-574-Tev-Flag-6His), PC5A (PCSK5; 115-63-Tev-Flag-6His), PACE4 (PCSK6; 150-693-Tev-Flag-6His), and PC7 (PCSK7; 142-634-Tev-Flag-6His) enzymes were purified from BacMam transduced CHO cells. Reactions were performed in black 384-well polystyrene low volume plates (Greiner) at a final volume of 10 μL. […] The plates were centrifuged at 500×g for 1 minute and incubated at room temperature for two hours. Enzyme inhibition was then quantified using an Envision instrument (PerkinElmer). Data were normalized to maximal inhibition determined by 1 μM Decanoyl-Arg-Val-Lys-Arg-Chloromethylketone (Calbiochem #344930).
The next assay concerns the target T6, endogenous furin (Homo sapiens, UniProt P09958).
T6 construct: the endogenous protease cleaves GFP from its N-acetylgalactosaminyltransferase-2 Golgi tether; endogenous in cells; host or cells: U2OS
As to the kind of experiment: Cell-based Golgi imaging assay of U2OS cells (BMP10-mimic cleavage). As to the method:
Biochemical assay: The proprotein convertases furin (108-574-Tev-Flag-6His), PC5A (PCSK5; […]-Tev-Flag-6His), PACE4 (PCSK6; 150-693-Tev-Flag-6His), and PC7 (PCSK7; 142-634-Tev-Flag-6His) enzymes were purified from BacMam transduced CHO cells. […] 0.05 μl of each concentration was transferred to the corresponding well of an assay plate, and then 5 μl of enzyme (furin, PCSK5, PCSK6, and PCSK7) in assay buffer (100 mM HEPES pH 7.5, 1 mM CaCl2) and 0.005% Triton X-100) was added using a Multidrop Combi (Thermo) to the compound plates to give a final protein concentration of 0.02, 0.5, 2.5, and 1.0 nM respectively. […] Enzyme inhibition was then quantified using an Envision instrument (PerkinElmer). Data were normalized to maximal inhibition determined by 1 μM Decanoyl-Arg-Val-Lys-Arg-Chloromethylketone (Calbiochem #344930). […]
Cellular assay: Analyses were initiated by the addition of U2OS cells simultaneously transduced with a BacMam-delivered construct containing a Golgi-targeting sequence followed by a 12-amino acid furin/PCSK cleavage site from Bone Morphogenic Protein 10 (BMP10) and then GFP at the C terminus. […] In the absence of a furin/PCSK inhibitor, the endogenous protease cleaves GFP from its N-acetylgalactosaminyltransferase-2 Golgi tether, releasing GFP into the Golgi lumen where fluorescence is diluted below the threshold of assay sensitivity. […]

Like-named read-outs stand apart in the source and are kept apart here. Residues, ends and D or L forms follow the SMILES beside them.

T3 sequence (Q92824 115-601): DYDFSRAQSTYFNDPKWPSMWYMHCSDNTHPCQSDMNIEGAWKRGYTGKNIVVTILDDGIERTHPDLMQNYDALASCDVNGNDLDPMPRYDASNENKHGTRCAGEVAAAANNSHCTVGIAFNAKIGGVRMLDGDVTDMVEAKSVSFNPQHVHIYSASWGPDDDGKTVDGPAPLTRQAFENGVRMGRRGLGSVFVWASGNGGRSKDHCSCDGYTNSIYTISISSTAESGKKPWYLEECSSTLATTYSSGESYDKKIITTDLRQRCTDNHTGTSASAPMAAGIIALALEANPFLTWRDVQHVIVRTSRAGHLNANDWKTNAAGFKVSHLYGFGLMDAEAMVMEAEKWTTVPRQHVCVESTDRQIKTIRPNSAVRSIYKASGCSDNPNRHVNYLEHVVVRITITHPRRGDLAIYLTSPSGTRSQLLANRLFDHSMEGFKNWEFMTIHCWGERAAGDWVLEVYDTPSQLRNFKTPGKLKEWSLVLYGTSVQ
T1 sequence (O15393 whole entry): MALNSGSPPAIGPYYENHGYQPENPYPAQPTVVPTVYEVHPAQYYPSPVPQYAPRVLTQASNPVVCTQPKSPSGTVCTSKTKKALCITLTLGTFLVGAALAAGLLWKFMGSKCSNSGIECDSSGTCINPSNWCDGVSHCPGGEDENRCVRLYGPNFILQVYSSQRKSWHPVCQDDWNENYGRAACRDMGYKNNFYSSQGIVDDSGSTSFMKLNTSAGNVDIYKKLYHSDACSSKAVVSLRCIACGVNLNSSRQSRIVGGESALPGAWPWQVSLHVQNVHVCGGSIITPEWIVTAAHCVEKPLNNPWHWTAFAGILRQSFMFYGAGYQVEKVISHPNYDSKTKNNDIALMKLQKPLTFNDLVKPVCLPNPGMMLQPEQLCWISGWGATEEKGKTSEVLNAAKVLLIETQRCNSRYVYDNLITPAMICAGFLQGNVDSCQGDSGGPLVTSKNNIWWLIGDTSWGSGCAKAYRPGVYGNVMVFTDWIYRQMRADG
T6 sequence (P09958 108-794): as the sequence (P09958 108-794) above

For `CN(C)C(=O)COC(=O)Cc1ccc(OC(=O)c2ccc(NC(=N)N)cc2)cc1` [Camostat], the “Viral replication, inhibitors individually” value in the assay with SARS-CoV-2 [1] is listed as “meaningfully reduce viral replication”. For the same molecule, at TMPRSS2 [2], the “Generation of S1′” value is “in large part” and the “Generation of sACE2” value is recorded as “inhibited”. For the same molecule, the “Formation of S2a and S2b” value at TMPRSS2 [2] (increasing TMPRSS2) was “prevented”.
On to `CC(=O)NCC1CCN(Cc2cc(Oc3cnc(N4CCN(CCC(C)C(=O)O)CC4)nc3)nc(-c3cc(Cl)cc(Cl)c3)c2)CC1` (stereo not shown) [Compound 192, 4-(4-(5-((4-((4-(acetamidomethyl)piperidin-1-yl)methyl)-6-(3,5-dichloro-phenyl)pyridin-2-yl)oxy)pyrimidin-2-yl)piperazin-1-yl)-2-methylbutanoic acid], for which the “Inhibition of processing of pro-(S) protein to active (S)-protein” value is listed as “Inhibition was observed” in assay [3], “somewhat” in assay [4] and “less inhibition” in assay [5]. Further, the IC50 against PACE4 (PCSK6) is approximately 7 nM; at PC5A (PCSK5) it was approximately 7 nM; against PC7 (PCSK7) it was approximately 7 nM; on furin [11], 4 ± 0.7 nM; at furin [13], approximately 7 nM. For the same molecule, the “S1/S2 and S2′ processing by endogenous furin-like enzymes” value in assay [6] is recorded as “blocked”. Further, the “Inhibition of S1/S2 and S2′ processing” value in assay [6] (300 nM) is listed as “almost complete inhibition”. The “Phenotype of S-expressing HeLa cells (syncytia, S and ACE2 localization)” value in assay [7] is “phenocopy those expressing μS1/S2”. In assay [8], this molecule returned an inhibition at 0.3 µM of more than 60%. For the same molecule, in [9], the “Viral entry in Calu-3 of pseudovirions packaged in presence of inhibitor” value is recorded as “block viral entry”. Besides, in the assay with SARS-CoV-2 [1], the “Antiviral effects and selectivity index relative to Compound 93” value was “comparable”. The “SARS-CoV-2 infection in Calu-3 cells (virus titers)” value in the assay on SARS-CoV-2 [1] is given as “strongly reduce”. Besides, the “Viral replication, inhibitors individually” value with SARS-CoV-2 [1] was “meaningfully reduce viral replication”. Further, in the assay with SARS-CoV-2 [1], the “Viral titers at 12, 24 and 48h post-infection” value is on record as “significantly decreased”. Besides, the “Virus production in infected Vero E6 cells” value with SARS-CoV-2 [10] is recorded as “modestly reduce virus production”. Further, the “Generation of S2a and S2b by TMPRSS2” value on TMPRSS2 [12] is on record as “none of the compounds affected”.
Regarding `CC(=O)NCC1CCN(Cc2cc(Oc3ccc(N4CCN(CCC(=O)O)CC4)nc3)nc(-c3cc(Cl)cc(Cl)c3)c2)CC1` [Compound 219, 3-(4-(5-((4-((4-(acetamidomethyl)piperidin-1-yl)methyl)-6-(3,5-dichlorophenyl)pyridin-2-yl)oxy)pyridin-2-yl)piperazin-1-yl)propanoicacid], the “Inhibition of processing of pro-(S) protein to active (S)-protein” value is recorded as “Inhibition was observed” in assay [3], “somewhat” in [4] and “less inhibition” in [5]. Further, the IC50 against PACE4 (PCSK6), at PC5A (PCSK5), against PC7 (PCSK7) and against furin [13] was approximately 7 nM throughout. Further, the “S1/S2 and S2′ processing by endogenous furin-like enzymes” value in assay [6] is “blocked”. The inhibition at 0.3 µM in assay [8] was more than 60%. Further, in [9], the “Viral entry in Calu-3 of pseudovirions packaged in presence of inhibitor” value is “block viral entry”. In addition, the “Antiviral effects and selectivity index relative to Compound 93” value in the assay on SARS-CoV-2 [1] is “comparable”. The “SARS-CoV-2 infection in Calu-3 cells (virus titers)” value with SARS-CoV-2 [1] is “strongly reduce”. In the assay with SARS-CoV-2 [1], the “Viral titers at 12, 24 and 48h post-infection” value is “significantly decreased”. For the same molecule, in the assay on SARS-CoV-2 [10], the “Virus production in infected Vero E6 cells” value is listed as “modestly reduce virus production”. Moreover, the “Generation of S2a and S2b by TMPRSS2” value on TMPRSS2 [12] is listed as “none of the compounds affected”.
Consider `CCCCCCCCCC(=O)N[C@@H](CCCNC(=N)N)C(=O)N[C@H](C(=O)N[C@@H](CCCCN)C(=O)N[C@@H](CCCNC(=N)N)C(=O)CCl)C(C)C` [RVKR-cmk, Decanoyl-Arg-Val-Lys-Arg-CMK, reference compound] (HELM PEPTIDE1{[CCCCCCCCCC(=O)[*:2]].R.V.K.R.[ClC[*:1]]}$$$$V2.0), for which the half-maximal inhibitory concentration (IC50) was approximately 9 nM on PACE4 (PCSK6); approximately 9 nM on PC5A (PCSK5); approximately 9 nM at PC7 (PCSK7); 5 nM on endogenous furin; approximately 9 nM against furin [13].
